Entries after “also recorded” stand apart in the source; their conditions may differ.
Assays:
[1] = tested on: EYFP-IAA17|AFB2 auxin reporting strain expressing iaaH; test: Time-lapse cytometry of iaaH sender strain with EYFP-IAA17|AFB2 auxin reporter after IAM or auxin; type: cell-based, Saccharomyces cerevisiae
Description: FIG. 3A illustrates an auxin sender strain design. The iaaH enzyme of Agrobacterium tumefaciens catalyzes the conversion of indole-3-acetamide (IAM) into auxin, inducing the degradation of proteins fused to an auxin degron. The iaaH enzyme (sender cells) was integrated into an auxin reporting strain (the EYFP-IAA17|AFB2 strain from Havens, et al. (2012) Plant Physiol. 160, 135-42) to test for internal auxin production.
Yeast can produce tunable levels of auxin via expression of Iaah from Agrobacterium tumefaciens. To generate an auxin producing strain, half of the IAM pathway from Agrobacterium tumefaciens was integrated into yeast (see Zhao, Y. (2010) Annu. Rev. Plant Biol. 61, 49-64). The IAM pathway is a two-step enzymatic process that converts tryptophan to IAM and then into auxin. The first step is via tryptophan-2-monooxygenase (iaaM, not examined here). The second step is catalyzed by indole-3-acetamide hydrolase (iaaH). To test whether yeast could produce auxin from IAM using only the second enzyme, the iaaH gene from the Agrobacterium tumefaciens Ti plasmid (see Pacurar, D. I., et al. (2011) Physiol. Mol. Plant Pathol. 76, 76-81) was integrated into an auxin reporting yeast strain (see FIG. 3A) containing a IAA-YFP fusion protein. After adding IAM, reporter degradation rates were measured via time-lapse cytometry (see FIG. 3B).
(§1) All cytometry measurements were acquired with an ACCURI™ C6 cytometer with attached CSAMPLER™ apparatus using 488 nm and 640 nm excitation lasers and a 533 nm (FL-1: YFP/GFP) emission filter. For experiments involving steady-state ADC behavior (see FIGS. 6A-7B) cultures were grown overnight in SC media with 1 nM beta-estradiol for ADC expression induction. The next morning they were diluted down 1:100 and then grown up for 5 hours and then induced with varying auxin concentrations from stock solutions. These cultures were then grown overnight and fluorescence was measured the next day. For the replicates, untreated cultures from the previous day's experiments were used as overnights to begin the next day's cultures.

[2] = tested on: receiver cells (ADCTF, gRNA targeting minimal CYC1 promoter driving EGFP); test: Coculture of sender and receiver strains treated with IAM; type: cell-based, Saccharomyces cerevisiae; details: saturating IAM
Description: FIG. 5A illustrates coculture of sender and receiver strains. Sender cells convert IAM into auxin that then diffuses out of sender cells and into receiver cells where it causes the degradation of ADCTFs, producing a drop in fluorescence.
Sender cells can produce a tunable auxin response in receiver cells. Sender and receiver cells were cocultured in different ratios to measure the effect of sender cell concentration on auxin signal production. Senders constitutively express iaaH and the receivers expressed an activating ADCTF and a gRNA targeting a minimal CYC1 promoter driving EGFP (see FIG. 5A). […] Three different receiver strains with a range of responses to auxin were tested with the sender strain. […] In addition, a 10% fraction of sender cells is sufficient for a significant change in fluorescence in receiver cells at steady state and a 50% fraction produces a nearly saturating signal (see FIGS. 5C and 5D).

[3] = tested on: ADCTF (auxin receiver) strain, minimal CYC1 promoter driving EGFP; test: Cytometry of ADCTF receiver yeast strains (GFP reporter) after auxin induction; type: cell-based, Saccharomyces cerevisiae
Description: Synthetic, scalable, auxin-modulated transcription factors are provided. To link an auxin sensor to diverse transcriptional responses and targets, auxin degradable CRISPR transcription factors (ADCTFs) with three modular domains were designed (see FIG. 1A). In some embodiments, a core component of the ADCTFs can be the CRISPR-based transcription factor described by Farzadfard, et al. (“Tunable and multifunctional eukaryotic transcription factors based on CRISPR/Cas,” ACS synthetic biology 2.10 (2013): 604-613), wherein a dCas9 protein functions as a programmable DNA binding module. The dCas9 was fused to a transcriptional effector domain, in this case the transcriptional activator VP64, and to an IAA degron. In the presence of an AFB, ADCTFs should generally be ubiquitinated and degraded when exposed to auxin. The ADCTFs were tested by targeting them to activate the expression of EGFP from a minimal CYC1 promoter and observing deactivation of fluorescence upon the addition of auxin. […] Auxin dependent regulation was independent of the promoter being regulated by the ADCTF (see FIG. 6B). The observed effect was also reversible.
as §1
For time course experiments, cultures were grown overnight in SC media with 1 nM beta-estradiol for ADC expression induction. The next morning two sets of parallel cultures were set up by diluting down the overnights 1:100. These were then grown up for 5 hours and then induced with 30 μM auxin and reads were taken every 30 minutes for approximately seven hours. A final steady state reading was taken the next day.
Cytometry data were analyzed using custom R scripts and the FLOWCORE™ package by first gating for the yeast diploid population and then generating mean fluorescence values for every point. These datasets were then collectively fit using the LOESS fitting function in R and metrics and error were derived from these fits. For the recovery experiments, the same protocol was used except the overnight cultures were grown up in SC with 1 nM beta-estradiol and 30 μM auxin.

[4] = tested on: UBQ1 promoter driving venus-luciferase reporter repressed by ADCTF; test: ADCTF-regulated venus-luciferase reporter in plants after auxin treatment; type: in vivo, Arabidopsis thaliana
Description: FIG. 12A is a schematic of the genetic circuit that was transformed into Arabidopsis thaliana to test the function of the hormone degradable CRISPR based transcription factor (HDCTF). […] These complex together and cause repression of the UBQ1 promoter, which is driving the expression of a venus-luciferase fusion reporter with a nuclear localization tag fused to it. Auxin can interact with the degron domain of the ADCTF (a version of the HDCTF) to degrade the transcription factor and relieve repression.
FIG. 12B is graph showing the normalized luciferase reporter activity over time for two plants, one of which has an ADCTF with a functional degron and the other which has a ADCTF with a stabilized degron. The orange bar indicates when the plants were exposed to either an auxin (solid line) or control (dashed line) treatment. The box plot summarizes the behavior of several plant lines with the functional or stabilized degron ADCTFs eighty minutes after treatment.

[5] = tested on: laboratory strains of yeast; details: grown in standard conditions; cited from earlier work

## NC(=O)Cc1c[nH]c2ccccc12 [IAM, indole-3-acetamide]
[1]
  delay between addition of IAM and production of auxin: no significant delay
[1]; for a given molarity, compared with auxin
  auxin-induced degradation rate (t1/2) of reporter: comparable to that of native auxin
[1]; time-lapse cytometry
  fluorescence of sender cells following addition of IAM: decreased to basal levels
[1]; varying doses of IAM
  steady state fluorescence of sender cells: lower steady state fluorescence; also recorded: converge to those of auxin
[2]
  fluorescence / gene activation in receiver strain: dropped in fluorescence over time; also recorded: comparable to direct addition of auxin

## auxin
[3]; 30 μM auxin, degron 17 with AFB2 or TIR1-DM, compared with pCYC1 target
  release of regulation with minimal pGAL promoter driving GFP: comparable release of regulation
[3]; time-lapse cytometry, ADCTF strain expressing gRNA
  GFP fluorescence level following addition of auxin: dropped to basal levels; also recorded: dropped to levels at or below the control (no gRNA) levels
[3]; wash-out after steady state
  reporter expression after auxin was removed: returned to its activated state
[4]; ADCTF with functional degron, eighty minutes after treatment
  normalized luciferase reporter activity: significant increase in reporter expression
[4]; root tip
  reporter expression in root tip (confocal microscopy): significant increase in reporter expression
[5]
  effects on laboratory strains of yeast: does not have measurable effects

B1: tir1-D/M: mutant of TIR1 F-box protein (protein, UniProt Q570C0 1-594, looked up, variant D170E M473L)
Protein TRANSPORT INHIBITOR …: MQKRIALSFPEEVLEHVFSFIQLDKDRNSVSLVCKSWYEIERWCRRKVFIGNCYAVSPATVIRRFPKVRSVELKGKPHFADFNLVPDGWGGYVYPWIEAMSSSYTWLEEIRLKRMVVTDDCLELIAKSFKNFKVLVLSSCEGFSTDGLAAIAATCRNLKELDLRESDVDEVSGHWLSHFPDTYTSLVSLNISCLASEVSFSALERLVTRCPNLKSLKLNRAVPLEKLATLLQRAPQLEELGTGGYTAEVRPDVYSGLSVALSGCKELRCLSGFWDAVPAYLPAVYSVCSRLTTLNLSYATVQSYDLVKLLCQCPKLQRLWVLDYIEDAGLEVLASTCKDLRELRVFPSEPFVMEPNVALTEQGLVSVSMGCPKLESVLYFCRQMTNAALITIARNRPNMTRFRLCIIEPKAPDYLTLEPLDIGFGAIVEHCKDLRRLSLSGLLTDKVFEYIGTYAKKMEMLSVAFAGDSDLGLHHVLSGCDSLRKLEIRDCPFGDKALLANASKLETMRSLWMSSCSVSFGACKLLGQKMPKLNVEVIDERGAPDSRPESCPVERVFIYRTVAGPRFDMPGFVWNMDQDSTMRFSRQIITTNGL
[3]; 30 μM auxin induction, ranking across library
  degradation kinetics (time to 50% degradation): fastest overall
[3]; steady state, dose response twenty-four hours after induction
  auxin sensitivity range conferred by F-box protein: narrowest

From patent publication US20170369892A1, “HORMONE DEGRADABLE CRISPR-BASED TRANSCRIPTION FACTORS” (University of Washington, priority 2016, published 2017)
